Experimental data: PMC6416464 (Drug Metabolism Letters, 2018)
Where two headings read alike, the source gives them in different places.

Assays:
[1] = Metabolic stability, incubation with human liver cytosol; format: in vitro ADME; details: 1 µM test compound, 1 mg/mL protein
rCYP3A4 = rCYP3A4 (Homo sapiens, UniProt P08684)
CYP3A4 [2] = biological target: T1, CYP3A4 (Homo sapiens, UniProt P08684); experiment: in vitro; details: microsomes, pH 7.4, % Inhibition of Control Activity CYP3A4 (substrate, testosterone)
T1 sequence (P08684 2-503): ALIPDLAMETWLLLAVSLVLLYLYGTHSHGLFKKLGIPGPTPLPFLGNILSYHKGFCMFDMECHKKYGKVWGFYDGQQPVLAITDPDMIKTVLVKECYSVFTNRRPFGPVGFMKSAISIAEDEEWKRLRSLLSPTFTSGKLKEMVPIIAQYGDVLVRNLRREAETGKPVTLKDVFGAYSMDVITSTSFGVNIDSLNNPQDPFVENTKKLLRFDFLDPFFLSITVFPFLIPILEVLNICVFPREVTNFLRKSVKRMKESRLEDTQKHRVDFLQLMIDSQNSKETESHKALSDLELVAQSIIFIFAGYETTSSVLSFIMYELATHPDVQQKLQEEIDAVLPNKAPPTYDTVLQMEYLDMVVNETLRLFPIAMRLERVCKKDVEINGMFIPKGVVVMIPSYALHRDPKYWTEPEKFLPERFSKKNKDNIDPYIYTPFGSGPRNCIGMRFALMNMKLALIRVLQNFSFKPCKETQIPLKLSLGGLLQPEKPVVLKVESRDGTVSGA

CYP3A4 [3] = biological target: T1, CYP3A4; experiment: in vitro; details: microsomes, pH 7.4
[4] = Metabolic stability, incubation with human liver microsomes; details: 1 µM test compound, 0.5 mg/mL protein
CYP2C8 = biological target: T2, CYP2C8 (Homo sapiens, UniProt P10632); experiment: CYP inhibition in human liver microsomes, CYP2C8; details: human, human liver microsomes, pH 7.4, probe paclitaxel
T2 sequence (P10632 1-490): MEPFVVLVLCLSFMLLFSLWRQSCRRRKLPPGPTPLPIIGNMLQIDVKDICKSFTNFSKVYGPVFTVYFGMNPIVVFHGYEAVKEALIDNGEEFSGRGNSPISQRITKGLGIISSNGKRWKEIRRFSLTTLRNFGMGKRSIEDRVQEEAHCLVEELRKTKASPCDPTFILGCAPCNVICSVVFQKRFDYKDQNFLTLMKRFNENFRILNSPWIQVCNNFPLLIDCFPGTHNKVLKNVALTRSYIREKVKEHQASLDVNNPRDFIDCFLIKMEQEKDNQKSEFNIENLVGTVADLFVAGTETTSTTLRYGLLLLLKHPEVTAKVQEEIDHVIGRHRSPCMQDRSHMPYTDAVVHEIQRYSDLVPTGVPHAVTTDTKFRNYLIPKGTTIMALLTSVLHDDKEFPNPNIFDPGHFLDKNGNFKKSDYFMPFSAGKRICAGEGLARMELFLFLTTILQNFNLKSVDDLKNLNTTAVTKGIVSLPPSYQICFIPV

rCYP1A2 = biological target: T3, rCYP1A2 (Homo sapiens, UniProt P05177); experiment: Metabolic stability / reaction phenotyping with recombinant human CYP1A2; details: 1 µM test compound; 100 pmol/mL; 30 min
T3 sequence (P05177 1-516): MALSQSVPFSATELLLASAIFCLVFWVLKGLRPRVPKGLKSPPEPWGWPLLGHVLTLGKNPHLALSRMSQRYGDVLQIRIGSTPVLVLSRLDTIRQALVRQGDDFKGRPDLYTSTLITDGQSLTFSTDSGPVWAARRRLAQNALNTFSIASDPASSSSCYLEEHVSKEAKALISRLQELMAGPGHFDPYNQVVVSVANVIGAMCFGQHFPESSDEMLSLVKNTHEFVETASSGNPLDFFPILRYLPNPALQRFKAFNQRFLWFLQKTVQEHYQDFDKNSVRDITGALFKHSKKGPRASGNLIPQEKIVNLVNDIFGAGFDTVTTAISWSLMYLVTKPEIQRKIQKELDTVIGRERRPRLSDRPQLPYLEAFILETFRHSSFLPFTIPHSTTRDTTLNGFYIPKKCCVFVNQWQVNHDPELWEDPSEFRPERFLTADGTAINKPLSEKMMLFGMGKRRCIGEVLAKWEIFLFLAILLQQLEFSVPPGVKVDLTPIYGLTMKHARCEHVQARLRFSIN

rCYP2C8 = biological target: T4, rCYP2C8 (Homo sapiens, UniProt P10632); experiment: Metabolic stability / reaction phenotyping with recombinant human CYP2C8; details: for % Metabolized at 30 min Incubation with Human Liver Fractions/Enzymes rCYP2C8: 1 µM test compound, 100 pmol/mL
T4 sequence (P10632 1-490): T2 sequence (P10632 1-490)

rCYP2C9 = rCYP2C9 (Homo sapiens, UniProt P11712); experiment: Metabolic stability / reaction phenotyping with recombinant human CYP2C9; details: for % Metabolized at 30 min Incubation with Human Liver Fractions/Enzymes rCYP2C9: 1 µM test compound, 100 pmol/mL
Chain of rCYP2C9 (P11712 whole entry): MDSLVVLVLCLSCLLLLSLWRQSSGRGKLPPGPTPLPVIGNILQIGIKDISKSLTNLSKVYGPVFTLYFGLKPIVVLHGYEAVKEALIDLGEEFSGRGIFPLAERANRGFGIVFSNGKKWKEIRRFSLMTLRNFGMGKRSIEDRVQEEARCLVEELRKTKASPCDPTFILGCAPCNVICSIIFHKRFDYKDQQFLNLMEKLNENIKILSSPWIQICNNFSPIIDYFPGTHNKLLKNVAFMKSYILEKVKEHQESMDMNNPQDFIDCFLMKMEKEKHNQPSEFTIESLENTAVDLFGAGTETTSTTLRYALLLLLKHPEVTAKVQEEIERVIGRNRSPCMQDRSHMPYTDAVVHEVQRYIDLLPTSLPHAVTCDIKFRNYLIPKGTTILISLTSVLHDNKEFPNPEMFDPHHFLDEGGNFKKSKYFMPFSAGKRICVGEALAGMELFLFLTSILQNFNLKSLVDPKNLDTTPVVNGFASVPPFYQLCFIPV

rCYP2D6 = rCYP2D6 (Homo sapiens, UniProt P10635); experiment: Metabolic stability / reaction phenotyping with recombinant human CYP2D6; details: 1 µM test compound; 100 pmol/mL; 30 min
Chain of rCYP2D6 (P10635 whole entry): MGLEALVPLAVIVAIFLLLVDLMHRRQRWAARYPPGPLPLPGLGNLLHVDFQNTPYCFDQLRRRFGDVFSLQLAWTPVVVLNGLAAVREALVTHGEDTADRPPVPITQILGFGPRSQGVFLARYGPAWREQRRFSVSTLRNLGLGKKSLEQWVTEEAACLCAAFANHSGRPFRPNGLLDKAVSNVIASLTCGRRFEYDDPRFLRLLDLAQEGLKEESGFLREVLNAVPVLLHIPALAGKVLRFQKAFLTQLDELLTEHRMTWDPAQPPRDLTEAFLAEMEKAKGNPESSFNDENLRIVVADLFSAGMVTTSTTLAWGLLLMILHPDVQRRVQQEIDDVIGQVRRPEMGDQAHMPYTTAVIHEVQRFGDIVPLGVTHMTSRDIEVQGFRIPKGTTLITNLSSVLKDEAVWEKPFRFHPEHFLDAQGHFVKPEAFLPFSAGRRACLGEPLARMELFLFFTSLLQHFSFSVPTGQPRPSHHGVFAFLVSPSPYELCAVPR

rCYP2C19 = rCYP2C19 (Homo sapiens, UniProt P33261); experiment: Metabolic stability / reaction phenotyping with recombinant human CYP2C19; details: for % Metabolized at 30 min Incubation with Human Liver Fractions/Enzymes rCYP2C19: 1 µM test compound, 100 pmol/mL
Chain of rCYP2C19 (P33261 whole entry): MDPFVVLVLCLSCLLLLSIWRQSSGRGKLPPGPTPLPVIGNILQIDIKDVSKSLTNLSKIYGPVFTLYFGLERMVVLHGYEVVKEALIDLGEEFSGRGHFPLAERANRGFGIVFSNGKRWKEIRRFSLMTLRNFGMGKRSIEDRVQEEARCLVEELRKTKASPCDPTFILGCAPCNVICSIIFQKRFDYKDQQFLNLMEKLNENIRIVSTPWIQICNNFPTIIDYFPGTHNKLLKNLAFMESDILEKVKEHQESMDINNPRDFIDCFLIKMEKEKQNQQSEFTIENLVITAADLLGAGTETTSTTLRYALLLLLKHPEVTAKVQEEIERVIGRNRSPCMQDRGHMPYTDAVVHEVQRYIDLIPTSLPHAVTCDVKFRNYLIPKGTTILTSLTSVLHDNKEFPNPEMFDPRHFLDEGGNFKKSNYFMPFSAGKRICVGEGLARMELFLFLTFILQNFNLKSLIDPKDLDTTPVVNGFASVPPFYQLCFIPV

CYP1A2 = biological target: T5, CYP1A2 (Homo sapiens, UniProt P05177); experiment: CYP inhibition in human liver microsomes, CYP1A2; details: human, human liver microsomes, pH 7.4, probe phenacetin, Percent inhibition, positive control inhibitor, CYP1A2, concentration tested 20 nM
T5 sequence (P05177 1-516): T3 sequence (P05177 1-516)

[5] = 1 µM test compound, 100 pmol/mL, 30 min
[6] = human, recombinant enzyme, pH 7.4
[7] = human, recombinant human CYP2C19, 1 µM, pH 7.4
[8] = human, recombinant human CYP2C8, 1 µM, pH 7.4
[9] = human, recombinant human CYP2C9, 1 µM, pH 7.4

Chain of rCYP3A4 (P08684 whole entry): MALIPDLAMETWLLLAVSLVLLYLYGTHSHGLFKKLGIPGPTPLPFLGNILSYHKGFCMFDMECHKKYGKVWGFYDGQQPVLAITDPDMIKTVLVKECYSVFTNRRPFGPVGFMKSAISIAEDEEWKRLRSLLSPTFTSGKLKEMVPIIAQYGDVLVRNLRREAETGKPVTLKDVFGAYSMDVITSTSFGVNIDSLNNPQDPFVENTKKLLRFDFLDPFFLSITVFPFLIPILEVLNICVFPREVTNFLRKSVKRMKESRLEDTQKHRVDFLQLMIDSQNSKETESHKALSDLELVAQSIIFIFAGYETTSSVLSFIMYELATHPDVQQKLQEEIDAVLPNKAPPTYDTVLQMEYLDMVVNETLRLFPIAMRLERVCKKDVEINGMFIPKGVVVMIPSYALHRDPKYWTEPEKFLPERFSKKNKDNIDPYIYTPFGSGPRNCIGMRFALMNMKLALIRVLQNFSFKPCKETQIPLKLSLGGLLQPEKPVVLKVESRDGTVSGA

## CNC(=O)O/N=C/C(C)(C)[S+](C)[O-] (centres unmarked) [Aldicarb sulfoxide, aldicarb sulfoxide]
[1]
  % Metabolized at 30 min Incubation with Human Liver Fractions/Enzymes Cytosol: 0.00%
rCYP3A4; [5]
  % Metabolized at 30 min Incubation with Human Liver Fractions/Enzymes rCYP3A4: 5.91%
rCYP3A4; human, pH 7.4
  Predicted Microsomal Clint, CYP3A4: 2.254 µL/min/mg Protein
rCYP3A4; [6]
  % Contribution of CYP Enzymes (fmCYP) in Metabolism, CYP3A4: 97.66%
  rCYP Clint, CYP3A4: 0.020 µL/min/pmol
CYP3A4 [2]
  inhibition at 2 µM: < 0%
  inhibition at 10 µM: < 0%
CYP3A4 [3]
  inhibition at 2 µM: < 0%
  inhibition at 10 µM: < 0%
[4]
  % Metabolized at 30 min Incubation with Human Liver Fractions/Enzymes HLM: 21.18%
CYP2C8
  inhibition at 2 µM: < 0%
  inhibition at 10 µM: 2.32%
rCYP1A2
  % Metabolized at 30 min Incubation with Human Liver Fractions/Enzymes rCYP1A2: 0.00%
rCYP2C8
  % Metabolized at 30 min Incubation with Human Liver Fractions/Enzymes rCYP2C8: 0.00%
rCYP2C9
  % Metabolized at 30 min Incubation with Human Liver Fractions/Enzymes rCYP2C9: 0.00%
rCYP2D6
  % Metabolized at 30 min Incubation with Human Liver Fractions/Enzymes rCYP2D6: 0.00%
rCYP2C19
  % Metabolized at 30 min Incubation with Human Liver Fractions/Enzymes rCYP2C19: 0.85%
rCYP2C19; [7]
  % Contribution of CYP Enzymes (fmCYP) in Metabolism, CYP2C19: 2.34%
  Predicted Microsomal Clint, CYP2C19: 0.054 µL/min/mg Protein
  rCYP Clint, CYP2C19: 0.003 µL/min/pmol

## CCOc1ccc(NC(C)=O)cc1 [Phenacetin, phenacetin]
rCYP1A2
  % Metabolized at 30 min Incubation with Human Liver Fractions/Enzymes rCYP1A2: 91.43%

## c1ccc2cnncc2c1 [Phthalazine, phthalazine, reference compound]
[1]
  % Metabolized at 30 min Incubation with Human Liver Fractions/Enzymes Cytosol: 90.89%

## CC(=O)O[C@H]1C(=O)[C@@]2(C)[C@H]([C@H](OC(=O)c3ccccc3)[C@]3(O)C[C@H](OC(=O)[C@H](O)[C@@H](NC(=O)c4ccccc4)c4ccccc4)C(C)=C1C3(C)C)[C@]1(OC(C)=O)CO[C@@H]1C[C@@H]2O [Paclitaxel, paclitaxel]
rCYP2C8
  % Metabolized at 30 min Incubation with Human Liver Fractions/Enzymes rCYP2C8: 11.21%

## COc1ccc2c(c1)[C@]13CCCC[C@@H]1[C@H](C2)N(C)CC3 [Dextromethorphan, dextromethorphan]
rCYP2D6
  % Metabolized at 30 min Incubation with Human Liver Fractions/Enzymes rCYP2D6: 99.81%

## CNC(=O)O/N=C/C(C)(C)SC [Aldicarb, aldicarb]
[1]
  % Metabolized at 30 min Incubation with Human Liver Fractions/Enzymes Cytosol: 21.08%
rCYP3A4; [5]
  % Metabolized at 30 min Incubation with Human Liver Fractions/Enzymes rCYP3A4: 0.00%
CYP3A4 [2]
  inhibition at 2 µM: < 0%
  inhibition at 10 µM: < 0%
CYP3A4 [3]
  inhibition at 2 µM: < 0%
  inhibition at 10 µM: < 0%
[4]
  % Metabolized at 30 min Incubation with Human Liver Fractions/Enzymes HLM: 13.41%
CYP2C8
  inhibition at 2 µM: 2.63%
  inhibition at 10 µM: < 0%
rCYP1A2
  % Metabolized at 30 min Incubation with Human Liver Fractions/Enzymes rCYP1A2: 0.00%
rCYP2C8
  % Metabolized at 30 min Incubation with Human Liver Fractions/Enzymes rCYP2C8: 13.26%
rCYP2C8; [8]
  % Contribution of CYP Enzymes (fmCYP) in Metabolism, CYP2C8: 56.91%
  Predicted Microsomal Clint, CYP2C8: 3.035 µL/min/mg Protein
  rCYP Clint, CYP2C8: 0.047 µL/min/pmol
rCYP2C9
  % Metabolized at 30 min Incubation with Human Liver Fractions/Enzymes rCYP2C9: 0.00%
rCYP2C9; [9]
  % Contribution of CYP Enzymes (fmCYP) in Metabolism, CYP2C9: 43.09%
  Predicted Microsomal Clint, CYP2C9: 2.298 µL/min/mg Protein
  rCYP Clint, CYP2C9: 0.024 µL/min/pmol
rCYP2D6
  % Metabolized at 30 min Incubation with Human Liver Fractions/Enzymes rCYP2D6: 0.00%
rCYP2C19
  % Metabolized at 30 min Incubation with Human Liver Fractions/Enzymes rCYP2C19: 6.93%

## CN(CCOc1ccc(CC2SC(=O)NC2=O)cc1)c1ccccn1 (centres unmarked) [Rosiglitazone, reference compound]
CYP2C8
  inhibition at 25 µM: 69.2%

## CN(C)CCCOc1nn(Cc2ccccc2)c2ccccc12 [Benzydamine, reference compound]
[4]
  % Metabolized at 30 min Incubation with Human Liver Fractions/Enzymes HLM: 16.45%

## O=C(O)Cc1ccccc1Nc1c(Cl)cccc1Cl [Diclofenac, diclofenac, reference compound]
rCYP2C9
  % Metabolized at 30 min Incubation with Human Liver Fractions/Enzymes rCYP2C9: 98.61%

## CN(Cc1cnc2nc(N)nc(N)c2n1)c1ccc(C(=O)N[C@@H](CCC(=O)O)C(=O)O)cc1 [Methotrexate, reference compound]
[1]
  % Metabolized at 30 min Incubation with Human Liver Fractions/Enzymes Cytosol: 3.18%

## O=c1cc(-c2ccccc2)oc2c1ccc1ccccc12 [α-Nepthoflavone, α-naphthoflavone, reference compound]
CYP1A2
  inhibition at 20 nM: 62.4%

## C[C@]12CC[C@H]3[C@@H](CCC4=CC(=O)CC[C@@]43C)[C@@H]1CC[C@@H]2O [Testosterone, testosterone, reference compound]
rCYP3A4; human, recombinant enzyme, 0.5 h, pH 7.4
  % Metabolized at 30 min Incubation with Human Liver Fractions/Enzymes rCYP3A4: 85.13%
[4]
  % Metabolized at 30 min Incubation with Human Liver Fractions/Enzymes HLM: 90.74%

## CNC(=O)O/N=C/C(C)(C)S(C)(=O)=O [Aldicarb sulfone, aldicarb sulfone]
[1]
  % Metabolized at 30 min Incubation with Human Liver Fractions/Enzymes Cytosol: 0.00%
CYP3A4 [2]
  inhibition at 2 µM: 1.83%
  inhibition at 10 µM: < 0%
CYP3A4 [3]
  inhibition at 2 µM: < 0%
  inhibition at 10 µM: < 0%
[4]
  % Metabolized at 30 min Incubation with Human Liver Fractions/Enzymes HLM: 1.05%
CYP2C8
  inhibition at 2 µM: 2.77%
  inhibition at 10 µM: 4.1%
